In patent US9738639B2, “Pyrroloquinoline quinone lithium salt crystal and preparation method and application thereof” (SHANGHAI RI XIN BIOTECHNOLOGY CO., LTD., priority 2013, dated 2017):

Experiments:
APP/PS1 transgenic mice = test: Morris water maze probe test in APP/PS1 transgenic mice; format: in vivo; conditions: for Adjusted average distance of approaching to platform / Swimming path, I quadrant occupancy of platform / first time of crossing platform / time spent of IV quadrant / time, I quadrant occupancy of platform / times of crossing platform: probe test on 5th day, n = 10
Procedure: 1. […] 2. APP/PS1 transgenic mice (Model Animal Research Center of Nanjing University, weights of mice are from 30 g to 40 g, male, totally 60 mice). Sixty mice are randomized to six groups (group 2 to group 7) with ten mice for each group. […] group: 0.15 mg/mL […] solution is obtained by grinding one tablet (5 mg) of […] into powder, followed by dissolved in 0.5% CMC (carboxymethylcellulose). Morris water maze (Experimental video analysis system of Morris water maze, JLBehv-MWMG, Shanghai Jiliang Technology Co., Ltd) Group 1 and group 2 are daily administrated by normal saline and group 3 to group 7 are daily administrated by drug solutions prepared above, with the dosage of 1 mL/100 g/day for continuous one month. From the fifth week, mice are training in Morris water maze, 30 minutes after drug administration. The training session lasts for 4 days. The probe test performed on the 5th day. The Morris water maze statistics software is used to automatically record and analyze the swimming trace in the quadrant, time spent and path in target or opposite quadrant occupancy and times of crossing platform. The data is indicated as average±standard deviation (x±SD). The analysis of variance for a single factor is used for data difference statistics. Difference between groups is determined by P<0.05.

[1] = Hygroscopicity by dynamic vapor sorption (DVS) analysis; format: physicochemical; conditions: for hygroscopicity: DVS
Procedure: Dynamic Vapor Sorption (DVS) curves of the polymorphs are measured on SMS DVS Intrinsic at 0-95% RH and 25° C.
The compound stably exists as a nonahydrate by dynamic vapor sorption analysis. It forms monohydrate under the scope of relative humidity (RH) from 20% to 50%. It forms dihydrate under the scope of relative humidity (RH) from 70% to 100%. It could forms polyhydrate with further increased relative humidity (RH).
Under the scope of relative humidity (RH) from 5% to 95%, the hygroscopicity of the intermediate A of pyrroloquinoline quinine lithium salt and the crystalline form B of pyrroloquinoline quinine lithium salt from example 1 is measured by dynamic vapor sorption analysis. […] The crystalline solid is not good. The hygroscopicity of the crystalline form B of pyrroloquinoline quinine lithium salt is 8.4% and 13.9% under the relative humidity (RH) of 65% and 80%, respectively. […] The crystalline solid is not good.

[2] = tested on: glycogen synthase kinase-3 (GSK-3); conditions: background statement, no data; cited from earlier work
[3] = 0.375 mg/kg daily for one month

For `COc1cc2c(cc1OC)C(=O)C(CC1CCN(Cc3ccccc3)CC1)C2` (stereo not shown) [Aricept, reference compound], the “Adjusted average distance of approaching to platform” value (“Adjusted average distance” below) (APP/PS1 transgenic mice; 1.5 mg/kg daily for one month) was 582.7 mm, the “Swimming path, I quadrant occupancy of platform” value (shortened to “Swimming path”) (APP/PS1 transgenic mice; 1.5 mg/kg daily for one month) was 2730.8 mm and the “first time of crossing platform” value (APP/PS1 transgenic mice; 1.5 mg/kg daily for one month) was 30.7 s. For the same compound, the “time spent of IV quadrant” value (APP/PS1 transgenic mice; 1.5 mg/kg daily for one month) was 21.7 s, the “time, I quadrant occupancy of platform” value (APP/PS1 transgenic mice; 1.5 mg/kg daily for one month) was 9.3 s and the times of crossing platform (APP/PS1 transgenic mice; 1.5 mg/kg daily for one month) was 1.6.
For `O=C([O-])c1cc(C(=O)[O-])c2c(n1)C(=O)C(=O)c1cc(C(=O)[O-])[nH]c1-2.[Li+].[Li+].[Li+]` [PQQ-Li, trilithium derivative of pyrroloquinoline quinine], the “hydrate form in which the compound stably exists” value ([1]; dynamic vapor sorption analysis) was “nonahydrate”, the “hygroscopicity variety under the normal moist environment for storage” value ([1]; listed as crystalline form B of pyrroloquinoline quinine lithium salt) was 5-10% and the hydrate form ([1]; relative humidity (RH) from 20% to 50%) was “monohydrate”. The hydrate form ([1]; relative humidity (RH) from 70% to 100%) was “dihydrate”, the hygroscopicity ([1]; relative humidity (RH) of 65%, listed as crystalline form B of pyrroloquinoline quinine lithium salt) was 8.4% and the hygroscopicity ([1]; relative humidity (RH) of 80%, listed as crystalline form B of pyrroloquinoline quinine lithium salt) was 13.9%. The “Adjusted average distance” value (APP/PS1 transgenic mice; [3]) was 762.6 mm, the “Swimming path” value (APP/PS1 transgenic mice; [3]) was 961.6 mm and the “first time of crossing platform” value (APP/PS1 transgenic mice; [3]) was 44.9 s. For the same compound, the “time spent of IV quadrant” value (APP/PS1 transgenic mice; [3]) was 12.4 s, the “time, I quadrant occupancy of platform” value (APP/PS1 transgenic mice; [3]) was 2.8 s and the times of crossing platform (APP/PS1 transgenic mice; [3]) was 0.8. The “Adjusted average distance” value (APP/PS1 transgenic mice; 0.75 mg/kg daily for one month) was 674.9 mm, the “Swimming path” value (APP/PS1 transgenic mice; 0.75 mg/kg daily for one month) was 2029.9 mm and the “first time of crossing platform” value (APP/PS1 transgenic mice; 0.75 mg/kg daily for one month) was 31.3 s. For the same compound, the “time spent of IV quadrant” value (APP/PS1 transgenic mice; 0.75 mg/kg daily for one month) was 15.8 s, the “time, I quadrant occupancy of platform” value (APP/PS1 transgenic mice; 0.75 mg/kg daily for one month) was 6.4 s and the times of crossing platform (APP/PS1 transgenic mice; 0.75 mg/kg daily for one month) was 1.6. For the same compound, the “Adjusted average distance” value (APP/PS1 transgenic mice; 1.5 mg/kg daily for one month) was 605.6 mm, the “Swimming path” value (APP/PS1 transgenic mice; 1.5 mg/kg daily for one month) was 2653.3 mm and the “first time of crossing platform” value (APP/PS1 transgenic mice; 1.5 mg/kg daily for one month) was 22.7 s. The “time spent of IV quadrant” value (APP/PS1 transgenic mice; 1.5 mg/kg daily for one month) was 17.7 s, the “time, I quadrant occupancy of platform” value (APP/PS1 transgenic mice; 1.5 mg/kg daily for one month) was 8.9 s and the times of crossing platform (APP/PS1 transgenic mice; 1.5 mg/kg daily for one month) was 2.2. For the same compound, the “Adjusted average distance” value (APP/PS1 transgenic mice; 3 mg/kg daily for one month) was 572.5 mm, the “Swimming path” value (APP/PS1 transgenic mice; 3 mg/kg daily for one month) was 2636.1 mm and the “first time of crossing platform” value (APP/PS1 transgenic mice; 3 mg/kg daily for one month) was 21.8 s. The “time spent of IV quadrant” value (APP/PS1 transgenic mice; 3 mg/kg daily for one month) was 19.5 s, the “time, I quadrant occupancy of platform” value (APP/PS1 transgenic mice; 3 mg/kg daily for one month) was 9.2 s and the times of crossing platform (APP/PS1 transgenic mice; 3 mg/kg daily for one month) was 2.3. For the same compound, the “dose dependence of effects in Morris water maze test” value (APP/PS1 transgenic mice; APP/PS1 transgenic mice, 0.375-3 mg/kg) was “good dose-dependent effects” and the “effect on spatial memory and cognitive impairment” value (APP/PS1 transgenic mice; APP/PS1 transgenic mice, Morris water maze test) was “significantly improved spatial memory and cognitive impairment”.
With `O=C([O-])c1cc(C(=O)[O-])c2c(n1)C(=O)C(=O)c1cc(C(=O)[O-])[nH]c1-2.[Li+].[Li+].[Li+]` [trilithium derivative of pyrroloquinoline quinine, reference compound] the “crystalline solid (assessment in words)” value ([1]; after the hygroscopicity comparison) was “not good”, the “hygroscopicity variety under the normal moist environment for storage” value [1] was 5-25% and the hygroscopicity ([1]; relative humidity (RH) of 65%) was 25.3%. The hygroscopicity ([1]; relative humidity (RH) of 80%) was 32.6%.
In the case of `O=C([O-])c1cc(C(=O)[O-])c2c(n1)C(=O)C(=O)c1cc(C(=O)[O-])[nH]c1-2.[Li+].[Li+].[Li+]` [Pyrroloquinoline quinine lithium salt, trilithium derivative of pyrroloquinoline quinine], the “effect on glycogen synthase kinase-3 activities (GSK-3)” value [2] is listed as “suppress the glycogen synthase kinase-3 activities”.
